Data reported in ChEMBL document CHEMBL1201862, “PubChem BioAssay data set” (2004).
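Cells were grown in 96-well plates and exposed to each compound for 48 hours at five concentrations; endpoints were interpolated linearly between bracketing concentrations, or set to the highest concentration if not reached. GI50 = concentration required for 50% inhibition of growth.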 Calls of active or inactive are those of the source. Rule as the data show it: active = GI50 up to about 1.1 µM and inactive = higher.

Key:
Test in all cases: NCI anticancer screen, dose series, 48 h
NCI-H522 = test system: NCI-H522
SNB-19 = test system: SNB-19
SW-620 = test system: SW-620
U-251 = test system: U-251
RPMI-8226 = test system: RPMI-8226
A498 = test system: A498
HOP-62 = test system: HOP-62
HCT-116 = test system: HCT-116
NCI/ADR-RES = test system: NCI/ADR-RES
ACHN = test system: ACHN
NCI-H23 = test system: NCI-H23
MDA-MB-435 = test system: MDA-MB-435
KM12 = test system: KM12
MDA-MB-231 = test system: MDA-MB-231
SK-MEL-28 = test system: SK-MEL-28
NCI-H226 = test system: NCI-H226
CAKI-1 = test system: CAKI-1
OVCAR-8 = test system: OVCAR-8
Hs-578T = test system: Hs-578T
OVCAR-3 = test system: OVCAR-3

COc1ccc(C[C@H]2NC[C@H](O)[C@H]2OC(C)=O)cc1 [ANISOMYCIN]
GI50 (NCI-H522): < 19.8 nM (active) | GI50 (SNB-19): < 17.7 nM (active) | GI50 (SW-620): 16.4 nM (active) | GI50 (U-251): 30.9 nM (active) | GI50 (RPMI-8226): 24.3 nM (active) | GI50 (A498): 32.4 nM (active) | GI50 (HOP-62): < 21 nM (active) | GI50 (HCT-116): < 15 nM (active) | GI50 (NCI/ADR-RES): 28.2 nM (active) | GI50 (ACHN): < 14.4 nM (active) | GI50 (NCI-H23): 31.6 nM (active) | GI50 (MDA-MB-435): 25.9 nM (active) | GI50 (KM12): 22.4 nM (active) | GI50 (MDA-MB-231): 15.9 nM (active) | GI50 (SK-MEL-28): 23.9 nM (active) | GI50 (NCI-H226): 23.4 nM (active) | GI50 (CAKI-1): 10.6 nM (active) | GI50 (OVCAR-8): < 16.8 nM (active) | GI50 (Hs-578T): 10 nM (active) | GI50 (OVCAR-3): 26.3 nM (active)

COc1c(C)c2c(c(O)c1C/C=C(\C)CCC(=O)O)C(=O)OC2 [MYCOPHENOLIC ACID]
GI50 (NCI-H522): 442 nM (active) | GI50 (SNB-19): 706 nM (active) | GI50 (SW-620): 571 nM (active) | GI50 (U-251): 342 nM (active) | GI50 (RPMI-8226): 1700 nM (inactive) | GI50 (A498): > 100000 nM (inactive) | GI50 (HOP-62): 6440 nM (inactive) | GI50 (HCT-116): 465 nM (active) | GI50 (NCI/ADR-RES): 2970 nM (inactive) | GI50 (ACHN): 1750 nM (inactive) | GI50 (NCI-H23): 471 nM (active) | GI50 (MDA-MB-435): 871 nM (active) | GI50 (KM12): 944 nM (active) | GI50 (MDA-MB-231): 2000 nM (inactive) | GI50 (SK-MEL-28): 1910 nM (inactive) | GI50 (NCI-H226): > 46900 nM (inactive) | GI50 (CAKI-1): 805 nM (active) | GI50 (OVCAR-8): 1080 nM (active) | GI50 (Hs-578T): 2510 nM (inactive) | GI50 (OVCAR-3): 2910 nM (inactive)

CC(=O)O[C@@H]1CO[C@H]2O[C@H]3[C@@H](C(C=O)=C[C@H](O)[C@@H]4C5=C(C(C)C)CC[C@]5(C)CC[C@@]34C)[C@@]2(O)C1=O [STRIATIN E]
GI50 (NCI-H522): 80.3 nM (active) | GI50 (SNB-19): 692 nM (active) | GI50 (SW-620): 49.9 nM (active) | GI50 (U-251): 175 nM (active) | GI50 (RPMI-8226): 59.2 nM (active) | GI50 (A498): 305 nM (active) | GI50 (HOP-62): 575 nM (active) | GI50 (HCT-116): 76 nM (active) | GI50 (NCI/ADR-RES): 189 nM (active) | GI50 (ACHN): 114 nM (active) | GI50 (NCI-H23): 209 nM (active) | GI50 (MDA-MB-435): 174 nM (active) | GI50 (KM12): 404 nM (active) | GI50 (MDA-MB-231): 184 nM (active) | GI50 (SK-MEL-28): 234 nM (active) | GI50 (NCI-H226): 378 nM (active) | GI50 (CAKI-1): 200 nM (active) | GI50 (OVCAR-8): 130 nM (active) | GI50 (Hs-578T): 221 nM (active) | GI50 (OVCAR-3): 139 nM (active)
